Non-standard residues stand in square brackets, D forms with d. Residues, ends and D or L forms follow the SMILES beside them. No end group written: not given here. *: point of attachment. NMeR = CN[C@@H](CCCNC(=N)N)C(=O)O; Tle = CC(C)(C)[C@H](N)C(=O)O; X1 = C[C@@H](CCCCCN)C(=O)*
How the values were obtained:
[1] = rat, in vivo
Procedure: (§1) In laboratory tests, catalepsy is characterized by the inability of an animal to correct its position after placement in an unnatural posture. Catalepsy tests may be greatly influenced by a number of variables. These include stress-induced inhibition of catalepsy caused by a new environment and the contribution of learned “pseudo-catalepsy” that may result upon repeated measures with the same animal. To circumvent these potential confounding factors, tests are performed on an animal only once in a quiet, controlled environment,
(§2) Finally, the bar test was utilized to measure catalepsy as a predictor of EPSEs in humans.

[2] = Catalepsy (bar test); conditions: 5 mg/kg
Procedure: as §1, §2

[3] = molecular target: NTR1 (Homo sapiens, UniProt P30989); conditions: cited from earlier work
[4] = cited from earlier work
[5] = Hypothermia studies in the male Sprague-Dawley rat with various compounds; format: in vivo; conditions: dose 1 mg/kg in saline
Procedure: Hypothermia studies in the male Sprague-Dawley rat were conducted using different compounds (dosed in saline) and the results are summarized in Table 1. For each compound, the maximum decrease in temperature (Δtemp) and the area under the curve for hypothermia versus a saline control (AUC) were measured.

[6] = in vivo; cited from earlier work

NTR1, sequence (P30989 whole entry, species assumed): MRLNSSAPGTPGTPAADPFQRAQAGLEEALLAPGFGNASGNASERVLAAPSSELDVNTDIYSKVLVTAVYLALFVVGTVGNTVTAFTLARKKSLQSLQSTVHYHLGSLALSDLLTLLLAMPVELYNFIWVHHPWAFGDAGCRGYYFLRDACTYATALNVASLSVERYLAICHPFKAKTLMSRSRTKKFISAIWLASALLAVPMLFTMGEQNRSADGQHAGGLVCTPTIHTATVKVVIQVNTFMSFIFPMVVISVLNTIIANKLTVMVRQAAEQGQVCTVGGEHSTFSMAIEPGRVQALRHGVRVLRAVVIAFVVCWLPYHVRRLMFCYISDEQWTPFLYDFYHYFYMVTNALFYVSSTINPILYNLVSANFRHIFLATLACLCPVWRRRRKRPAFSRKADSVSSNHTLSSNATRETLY

## O=C(CCCN1CCC(O)(c2ccc(Cl)cc2)CC1)c1ccc(F)cc1 [Haloperidol]
[1]
  duration of induced catalepsy: greater than 30 sec

## CC(C)C[C@H](NC(=O)[C@@H](NC(=O)[C@H](Cc1ccc(O)cc1)NC(=O)[C@@H]1CCCN1C(=O)[C@H](CCCNC(=N)N)NC(=O)[C@@H](C)CCCCCN)C(C)(C)C)C(=O)O [ABS-201] (X1-RPY[Tle]L-OH)
[2]
  catalepsy after peripheral administration: does not induce catalepsy

## N-Me-L-Arg-L-Lys-L-Pro-L-Trp-t-Leu-L-Leu ([NMeR]KPW[Tle]L) [SEQ ID NO:2, reference compound]
[3]
  loss of binding affinity at NTR1: 700 fold
[4]; oral
  central activity after oral administration: not able to elicit central activity
[5]
  AUC (area under the curve for hypothermia versus saline control): 700
  Δtemp (maximum decrease in temperature): −4.2

## N-Me-L-Arg-L-Lys-L-Pro-L-neoTyr-t-Leu-L-Leu [NT69L]
[3]
  Kd: 1.55 nM
[4]; 1 mg/kg injection, 90 min post-injection
  hypothermic effect: −5.3 °C
[4]; chronic administration
  effect of chronic administration on hypothermic effect: tolerance to its hypothermic effect
[4]; oral
  hypothermic response after oral administration: only a slight hypothermic response
[6]
  hyperactivity induced by cocaine and d-amphetamine: attenuated hyperactivity

Source: patent publication US20120142601A1, “Modified Peptides and Uses Thereof” (MUSC Foundation for Research Development, priority 2009, published 2012)
